Non-standard residues stand in square brackets, D forms with d. Residues, ends and D or L forms follow the SMILES beside them. dPro(4R-(4-pyridylmethyl)) = O=C(O)[C@H]1C[C@@H](Cc2ccncc2)CN1; Trp(βS-Me,4-F) = C[C@@H](c1c[nH]c2cccc(F)c12)[C@H](N)C(=O)O; Ala(1-bicyclo(1.1.1)pentyl) = N[C@@H](CC12CC(C1)C2)C(=O)O; dPro(3S-(4-F-Bn)) = O=C(O)[C@@H]1NCC[C@@H]1Cc1ccc(F)cc1; Phe(4-CONH2) = NC(=O)c1ccc(C[C@H](N)C(=O)O)cc1; Phe(4-COOH) = N[C@@H](Cc1ccc(C(=O)O)cc1)C(=O)O; Pro(cis-4-F) = O=C(O)[C@@H]1C[C@H](F)CN1; Ala(4-THP) = N[C@@H](CC1CCOCC1)C(=O)O; AEF = NCCOc1ccc(C[C@H](N)C(=O)O)cc1; d(αMeD) = C[C@@](N)(CC(=O)O)C(=O)O; 4Pal = N[C@@H](Cc1ccncc1)C(=O)O; d(αMeS) = C[C@@](N)(CO)C(=O)O; Dab = NCC[C@H](N)C(=O)O; Aib = CC(C)(N)C(=O)O

A word on the IC50: it is the point on the concentration scale where inhibition reaches its midpoint.

T1 sequence (P01584 117-269): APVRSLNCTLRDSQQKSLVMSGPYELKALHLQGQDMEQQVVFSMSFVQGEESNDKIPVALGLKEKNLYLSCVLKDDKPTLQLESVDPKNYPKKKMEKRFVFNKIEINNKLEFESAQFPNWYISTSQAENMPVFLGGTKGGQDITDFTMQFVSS

This assay addresses T1, IL-1β (Homo sapiens, UniProt P01584).
T1 construct: purchased BioLegend 579404
As to the kind of experiment: IL-6 assay in MRC5 cells: inhibition of IL-1β induced IL-6 secretion (AlphaLISA). The note with it: inhibition of IL-1β induced IL-6 secretion in MRC5 cells; read-out: MRC5 IC50. The format is cell-based. In a few lines: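 Compound was pre-incubated 1 h at ambient temperature with recombinant human IL-1β at 2λ EC80 before adding human lung fibroblast MRC5 cells (3000/well) in EMEM with 0.025% BSA. After overnight culture at 37 °C, 5% CO2, secreted IL-6 in conditioned medium was measured by AlphaLISA; IC50 from 4-parameter logistic fits.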
(In general: Bead proximity is the source of the signal in Alpha formats.)
For `CC(=O)NCCOc1ccc(C[C@@H]2NC(=O)[C@H]3[C@@H](Cc4ccc(F)cc4)CCN3C(=O)CNC(=O)[C@H](CCN)NC(=O)[C@H](CCC(N)=O)NC(=O)[C@H](CC3CCOCC3)NC(=O)[C@@](C)(CC(=O)O)NC(=O)[C@H](Cc3c[nH]c4ccccc34)NC(=O)[C@H](CO)NC(=O)C(C)(C)NC(=O)[C@H]([C@@H](C)c3c[nH]c4cccc(F)c34)NC(=O)[C@@H]3C[C@H](F)CN3C(=O)CNC(=O)[C@H](Cc3ccc(C(=O)O)cc3)NC(=O)[C@H](CC34CC(C3)C4)NC2=O)cc1` [Example 370] (cyclo([AEF](Ac)[Ala(1-bicyclo(1.1.1)pentyl)][Phe(4-COOH)]G[Pro(cis-4-F)][Trp(βS-Me,4-F)][Aib]SW[d(αMeD)][Ala(4-THP)]Q[Dab]G[dPro(3S-(4-F-Bn))])), the 50% inhibitory concentration (IC50) was 0.015 nM.
For `CC(=O)NCCOc1ccc(C[C@@H]2NC(=O)[C@H]3[C@@H](Cc4ccc(F)cc4)CCN3C(=O)CNC(=O)[C@H](CCN)NC(=O)[C@H](CCC(N)=O)NC(=O)[C@H](CC3CCOCC3)NC(=O)[C@@](C)(CO)NC(=O)[C@H](Cc3c[nH]c4ccccc34)NC(=O)[C@H](CO)NC(=O)C(C)(C)NC(=O)[C@H]([C@@H](C)c3c[nH]c4cccc(F)c34)NC(=O)[C@@H]3C[C@H](F)CN3C(=O)CNC(=O)[C@H](Cc3ccc(C(=O)O)cc3)NC(=O)[C@H](CC34CC(C3)C4)NC2=O)cc1` [Example 371] (cyclo([AEF](Ac)[Ala(1-bicyclo(1.1.1)pentyl)][Phe(4-COOH)]G[Pro(cis-4-F)][Trp(βS-Me,4-F)][Aib]SW[d(αMeS)][Ala(4-THP)]Q[Dab]G[dPro(3S-(4-F-Bn))])) the value was 0.014 nM; for `CC(=O)NCCOc1ccc(C[C@@H]2NC(=O)[C@H]3[C@@H](Cc4ccc(F)cc4)CCN3C(=O)CNC(=O)[C@H](CCN)NC(=O)[C@H](CCC(N)=O)NC(=O)[C@H](CC3CCOCC3)NC(=O)[C@@](C)(CC(=O)O)NC(=O)[C@H](Cc3c[nH]c4ccccc34)NC(=O)[C@H](CO)NC(=O)C(C)(C)NC(=O)[C@H]([C@@H](C)c3c[nH]c4cccc(F)c34)NC(=O)[C@@H]3C[C@H](F)CN3C(=O)CNC(=O)[C@H](Cc3ccc(C(=O)O)cc3)NC(=O)[C@H](Cc3ccncc3)NC2=O)cc1` [Example 372] (cyclo([AEF](Ac)[4Pal][Phe(4-COOH)]G[Pro(cis-4-F)][Trp(βS-Me,4-F)][Aib]SW[d(αMeD)][Ala(4-THP)]Q[Dab]G[dPro(3S-(4-F-Bn))])), 0.009 nM.
Consider `CC(=O)NCCOc1ccc(C[C@@H]2NC(=O)[C@H]3[C@@H](Cc4ccc(F)cc4)CCN3C(=O)CNC(=O)[C@H](CCN)NC(=O)[C@H](CCC(N)=O)NC(=O)[C@H](CC3CCOCC3)NC(=O)[C@@](C)(CC(=O)O)NC(=O)[C@H](Cc3c[nH]c4ccccc34)NC(=O)[C@H](CO)NC(=O)C(C)(C)NC(=O)[C@H]([C@@H](C)c3c[nH]c4cccc(F)c34)NC(=O)[C@@H]3C[C@H](F)CN3C(=O)CNC(=O)[C@H](Cc3ccc(C(N)=O)cc3)NC(=O)[C@H](CC34CC(C3)C4)NC2=O)cc1` [Example 373] (cyclo([AEF](Ac)[Ala(1-bicyclo(1.1.1)pentyl)][Phe(4-CONH2)]G[Pro(cis-4-F)][Trp(βS-Me,4-F)][Aib]SW[d(αMeD)][Ala(4-THP)]Q[Dab]G[dPro(3S-(4-F-Bn))])), for which the IC50 was 0.012 nM.
For `CC(=O)NCCOc1ccc(C[C@@H]2NC(=O)[C@H]3C[C@@H](Cc4ccncc4)CN3C(=O)CNC(=O)[C@H](CCN)NC(=O)[C@H](CCC(N)=O)NC(=O)[C@H](CC3CCOCC3)NC(=O)[C@@](C)(CC(=O)O)NC(=O)[C@H](Cc3c[nH]c4ccccc34)NC(=O)[C@H](CO)NC(=O)C(C)(C)NC(=O)[C@H]([C@@H](C)c3c[nH]c4cccc(F)c34)NC(=O)[C@@H]3C[C@H](F)CN3C(=O)CNC(=O)[C@H](Cc3ccc(C(=O)O)cc3)NC(=O)[C@H](CC34CC(C3)C4)NC2=O)cc1` [Example 374] (cyclo([AEF](Ac)[Ala(1-bicyclo(1.1.1)pentyl)][Phe(4-COOH)]G[Pro(cis-4-F)][Trp(βS-Me,4-F)][Aib]SW[d(αMeD)][Ala(4-THP)]Q[Dab]G[dPro(4R-(4-pyridylmethyl))])) the value was 0.017 nM.

For the origin of these results see patent US20260242419A1, “A CYCLIC PEPTIDE FOR TRAPPING INTERLEUKIN-1 BETA” (Merck Sharp & Dohme LLC, priority 2023, published 2026).
